Results from patent US20080200454A1, “CARBON-LINKED TETRAHYDRO-PYRAZOLO-PYRIDINE MODULATORS OF CATHEPSIN S” (priority 2007, published 2008).

Molecular target: Recombinant human cathepsin S (CatS) (Homo sapiens, UniProt P25774)
Test: Recombinant human cathepsin S (CatS) inhibition assay, fluorogenic substrate Z-Valine-Valine-Arginine-AMC;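 also: Baculovirus-expressed CatS in pH 5.0 sodium acetate buffer with DTT and NaCl, fluorescence read each minute over 20 min, inhibition derived from rate slope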
Conditions: not given

Sequence of Recombinant human cathepsin S (CatS) (P25774 115-331): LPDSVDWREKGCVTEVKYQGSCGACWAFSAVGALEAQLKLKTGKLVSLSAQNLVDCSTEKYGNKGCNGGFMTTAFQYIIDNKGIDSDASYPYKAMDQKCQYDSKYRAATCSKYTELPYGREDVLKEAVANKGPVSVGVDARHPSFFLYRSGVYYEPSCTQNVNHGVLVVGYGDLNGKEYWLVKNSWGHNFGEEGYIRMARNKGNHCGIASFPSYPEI

Point of comparison: CS(=O)(=O)N1CCc2c(c(-c3ccc(Cl)c(C#Cc4ccc5c(c4)CC(CO)NC5)c3)nn2CCCN2CCOCC2)C1 (stereo not drawn) [Example 206, [6-({2-Chloro-5-[5-(methylsulfonyl)-1-(3-morpholin-4-ylpropyl)-4,5,6,7-tetrahydro-1H-pyrazolo[4,3-c]pyridin-3-yl]phenyl}ethynyl)-1,2,3,4-tetrahydroisoquinolin-3-yl]methanol], IC50 210 nM. Against it:
- CC1COCCN1CCCn1nc(-c2ccc(Cl)c(C#Cc3ccc(Cl)c(CNCC4CCCO4)c3)c2)c2c1CCN(C(N)=O)C2 (stereo in doubt) [Example 223, 3-{4-Chloro-3-[(4-chloro-3-{[(tetrahydrofuran-2-ylmethyl)amino]methyl}phenyl)ethynyl]phenyl}-1-{3-[(3S)-3-methylmorpholin-4-yl]propyl}-1,4,6,7-tetrahydro-5H-pyrazolo[4,3-c]pyridine-5-carboxamide] — 10-fold lower, 20 nM
- NCC(=O)N1CCc2c(c(-c3ccc(Cl)c(C#Cc4ccc(CNCc5ccc(Cl)cc5)cc4)c3)nn2CCCN2CCOCC2)C1 [Example 154, 2-[3-(4-Chloro-3-{[4-({[(4-chlorophenyl)methyl]amino}methyl)phenyl]ethynyl}phenyl)-1-(3-morpholin-4-ylpropyl)-1,4,6,7-tetrahydro-5H-pyrazolo[4,3-c]pyridin-5-yl]-2-oxoethanamine] — within 1.5-fold, 260 nM
- CS(=O)(=O)N1CCc2c(c(-c3ccc(Cl)c(C#Cc4ccc(CNCc5ccc(Cl)cc5)cc4)c3)nn2CCCN2CCC(c3ccccn3)CC2)C1 [Example 177, 1-{4-[(2-Chloro-5-{5-(methylsulfonyl)-1-[3-(4-pyridin-2-ylpiperidin-1-yl)propyl]-4,5,6,7-tetrahydro-1H-pyrazolo[4,3-c]pyridin-3-yl}phenyl)ethynyl]phenyl}-N-[(4-chlorophenyl)methyl]methanamine] — 21-fold lower, 10 nM
- CC1CCCN(CCCCc2cc(-c3nn(CCCN4CCC(N5CCCC5=O)CC4)c4c3CN(S(C)(=O)=O)CC4)ccc2Cl)C1 (stereo not drawn) [Example 111, 1-{1-[3-(3-{4-Chloro-3-[4-(3-methyl-piperidin-1-yl)-butyl]-phenyl}-5-methanesulfonyl-4,5,6,7-tetrahydro-pyrazolo[4,3-c]pyridin-1-yl)-propyl]-piperidin-4-yl}-pyrrolidin-2-one] — 9.7-fold higher, 2040 nM
- CC(=O)N1CCc2c(c(-c3ccc(Cl)c(C#Cc4ccc(CNCc5ccc(Cl)cc5)cc4)c3)nn2CCCN2CCOC[C@@H]2C)C1 [Example 400, 1-(4-{[5-(5-Acetyl-1-{3-[(3S)-3-methylmorpholin-4-yl]propyl}-4,5,6,7-tetrahydro-1H-pyrazolo[4,3-c]pyridin-3-yl)-2-chlorophenyl]ethynyl}phenyl)-N-[(4-chlorophenyl)methyl]methanamine] — within 1.5-fold, 190 nM
- C[C@H]1COCCN1CCCn1nc(-c2ccc(Cl)c(C#Cc3ccc(CNCc4ccc(Cl)cc4)cc3)c2)c2c1CCN(C(=O)C(N)=O)C2 [Example 158, 2-[3-(4-Chloro-3-{[4-({[(4-chlorophenyl)methyl]amino}methyl)phenyl]ethynyl}phenyl)-1-{3-[(3S)-3-methylmorpholin-4-yl]propyl}-1,4,6,7-tetrahydro-5H-pyrazolo[4,3-c]pyridin-5-yl]-2-oxoacetamide] — 4.2-fold lower, 50 nM
- CS(=O)(=O)N1CCc2c(c(-c3ccc(Cl)c(/C=C\c4ccccc4)c3)nn2CCCN2CCOCC2)C1 [Example 67, 3-(4-Chloro-3-Z-styryl-phenyl)-5-methanesulfonyl-1-(3-morpholin-4-yl-propyl)-4,5,6,7-tetrahydro-1H-pyrazolo[4,3-c]pyridine] — 15-fold higher, 3050 nM
- CS(=O)(=O)N1CCc2c(c(-c3ccc(Cl)c(CCCNC(=O)c4ccccc4)c3)nn2CCCN2CCOCC2)C1 [Example 64, N-(3-{2-Chloro-5-[5-methanesulfonyl-1-(3-morpholin-4-yl-propyl)-4,5,6,7-tetrahydro-1H-pyrazolo[4,3-c]pyridin-3-yl]-phenyl}-propyl)-benzamide] — 26-fold higher, 5400 nM
- CS(=O)(=O)N1CCc2c(c(-c3ccc(Cl)c(C#Cc4ccc(Cl)cc4)c3)nn2CC(O)CN2CCC(N3CCCC3=O)CC2)C1 (stereo not drawn) [Example 123] — 21-fold lower, 10 nM
- NC(=O)C(=O)N1CCc2c(c(-c3ccc(Cl)c(C#Cc4ccc(CNCc5ccc(Cl)cc5)cc4)c3)nn2CCCN2CCC(C(F)(F)F)CC2)C1 [Example 452, 2-[3-(4-Chloro-3-{[4-({[(4-chlorophenyl)methyl]amino}methyl)phenyl]ethynyl}phenyl)-1-{3-[4-(trifluoromethyl)piperidin-1-yl]propyl}-1,4,6,7-tetrahydro-5H-pyrazolo[4,3-c]pyridin-5-yl]-2-oxoacetamide] — 2.1-fold lower, 100 nM

Same assay, conditions: CatS IC50

Point of comparison: NC(=O)N1CCc2c(c(-c3ccc(Cl)c(C#Cc4ccc(Cl)c(C(=O)N5CCCC5)c4)c3)nn2CCCN2CCSCC2)C1 [Example 570, 3-(4-Chloro-3-{[4-chloro-3-(pyrrolidin-1-ylcarbonyl)phenyl]ethynyl}phenyl)-1-(3-thiomorpholin-4-ylpropyl)-1,4,6,7-tetrahydro-5H-pyrazolo[4,3-c]pyridine-5-carboxamide], IC50 260 nM. Against it:
- CS(=O)(=O)N1CCc2c(c(-c3ccc(Cl)c(C#Cc4ccc(NCCc5ccccc5)cc4)c3)nn2CCCN2CCOCC2)C1 [Example 327, 4-({2-Chloro-5-[5-(methylsulfonyl)-1-(3-morpholin-4-ylpropyl)-4,5,6,7-tetrahydro-1H-pyrazolo[4,3-c]pyridin-3-yl]phenyl}ethynyl)-N-(2-phenylethyl)aniline] — 2.9-fold higher, 760 nM
- CS(=O)(=O)N1CCc2c(c(-c3ccc(Cl)c(C#Cc4ccc5c(c4)CCN(CC4CC4)C5)c3)nn2CCCN2CCOCC2)C1 [Example 505, 6-({2-Chloro-5-[5-(methylsulfonyl)-1-(3-morpholin-4-ylpropyl)-4,5,6,7-tetrahydro-1H-pyrazolo[4,3-c]pyridin-3-yl]phenyl}ethynyl)-2-(cyclopropylmethyl)-1,2,3,4-tetrahydroisoquinoline] — 2.4-fold higher, 630 nM
- CC(C)CC#Cc1cc(-c2nn(CCCN3CCOCC3)c3c2CN(S(C)(=O)=O)CC3)ccc1Cl [Example 51, 3-[4-Chloro-3-(4-methyl-pent-1-ynyl)-phenyl]-5-methanesulfonyl-1-(3-morpholin-4-yl-propyl)-4,5,6,7-tetrahydro-1H-pyrazolo[4,3-c]pyridine] — 32-fold higher, 8250 nM
- C[C@H]1COCCN1CCCn1nc(-c2ccc(Cl)c(C#Cc3ccc(C(=O)NC[C@@H]4CCCN4)cc3)c2)c2c1CCN(C(=O)C(N)=O)C2 [Example 610, 4-{[5-(5-[Amino(oxo)acetyl]-1-{3-[(3S)-3-methylmorpholin-4-yl]propyl}-4,5,6,7-tetrahydro-1H-pyrazolo[4,3-c]pyridin-3-yl)-2-chlorophenyl]ethynyl}-N-[(2S)-pyrrolidin-2-ylmethyl]benzamide] — 8.7-fold lower, 30 nM
- CS(=O)(=O)N1CCc2c(c(-c3ccc(Cl)c(C#Cc4cccs4)c3)nn2CCCN2CCOCC2)C1 [Example 12, 3-(4-Chloro-3-thiophen-2-ylethynyl-phenyl)-5-methanesulfonyl-1-(3-morpholin-4-yl-propyl)-4,5,6,7-tetrahydro-1H-pyrazolo[4,3-c]pyridine] — 3-fold higher, 790 nM
- NC(=O)N1CCc2c(c(-c3ccc(Cl)c(C#Cc4ccc(CNCc5ccc(OC(F)F)cc5)cc4)c3)nn2CCCN2CCSCC2)C1 [Example 176] — within 1.5-fold, 230 nM
- CS(=O)(=O)N1CCc2c(c(-c3ccc(Cl)c(C#Cc4ccc5c(c4)CN(C4CC4)CC5)c3)nn2CCCN2CCN(C3CC3)CC2)C1 [Example 276, 7-[(2-Chloro-5-{1-[3-(4-cyclopropylpiperazin-1-yl)propyl]-5-(methylsulfonyl)-4,5,6,7-tetrahydro-1H-pyrazolo[4,3-c]pyridin-3-yl}phenyl)ethynyl]-2-cyclopropyl-1,2,3,4-tetrahydroisoquinoline] — within 1.5-fold, 180 nM
- NC(=O)N1CCc2c(c(-c3ccc(Cl)c(C#Cc4ccc(CN5CCC(N6C[C@H](O)CC6=O)CC5)cc4)c3)nn2CCCN2CCSCC2)C1 [Example 549, 3-(4-Chloro-3-{[4-({4-[(4R)-4-hydroxy-2-oxopyrrolidin-1-yl]piperidin-1-yl}methyl)phenyl]ethynyl}phenyl)-1-(3-thiomorpholin-4-ylpropyl)-1,4,6,7-tetrahydro-5H-pyrazolo[4,3-c]pyridine-5-carboxamide] — 3.9-fold higher, 1010 nM
- CC(C)(C)OC(=O)N1CCC(C2CCN(C[C@H](O)Cn3nc(-c4ccc(Cl)c(C#Cc5cccnc5)c4)c4c3CCN(S(C)(=O)=O)C4)CC2)CC1 [Example 235, 1,1-Dimethylethyl 1′-[(2S)-3-{3-[4-chloro-3-(pyridin-3-ylethynyl)phenyl]-5-(methylsulfonyl)-4,5,6,7-tetrahydro-1H-pyrazolo[4,3-c]pyridin-1-yl}-2-hydroxypropyl]-4,4′-bipiperidine-1-carboxylate] — within 1.5-fold, 330 nM
- CS(=O)(=O)N1CCc2c(c(-c3ccc(Cl)c(C#Cc4ccc5c(c4)CN[C@@H](C(N)=O)C5)c3)nn2CCCN2CCOCC2)C1 [Example 197, (3R)-7-({2-Chloro-5-[5-(methylsulfonyl)-1-(3-morpholin-4-ylpropyl)-4,5,6,7-tetrahydro-1H-pyrazolo[4,3-c]pyridin-3-yl]phenyl}ethynyl)-1,2,3,4-tetrahydroisoquinoline-3-carboxamide] — within 1.5-fold, 200 nM
- C[C@H]1COCCN1CCCn1nc(-c2ccc(Cl)c(C#Cc3ccc(Cl)c(C(=O)N4CCNCC4)c3)c2)c2c1CCN(C(=O)C(N)=O)C2 [Example 574, 2-[3-(4-Chloro-3-{[4-chloro-3-(piperazin-1-ylcarbonyl)phenyl]ethynyl}phenyl)-1-{3-[(3S)-3-methylmorpholin-4-yl]propyl}-1,4,6,7-tetrahydro-5H-pyrazolo[4,3-c]pyridin-5-yl]-2-oxoacetamide] — 1.9-fold lower, 140 nM
- CN(Cc1ccc(Cl)cc1)Cc1ccc(C#Cc2cc(-c3nn(CCCN4CCN(c5ccccc5)CC4)c4c3CN(S(C)(=O)=O)CC4)ccc2Cl)cc1 [Example 490, 1-{4-[(2-Chloro-5-{5-(methylsulfonyl)-1-[3-(4-phenylpiperazin-1-yl)propyl]-4,5,6,7-tetrahydro-1H-pyrazolo[4,3-c]pyridin-3-yl}phenyl)ethynyl]phenyl}-N-[(4-chlorophenyl)methyl]-N-methylmethanamine] — 3.7-fold lower, 70 nM
